Results on 21 compounds are retold here after ChEMBL document CHEMBL1201862, “PubChem BioAssay data set” (2004).

The CC50 is the concentration that lowers cell viability or growth by half. As a reminder, the EC50 is the concentration at which the effect is half-maximal. The AC50 is the midpoint of the concentration-response curve, whichever way the signal moves.

The nature of test [1]: HEp-2 cell cytotoxicity, dose response, cytotoxicity control for RSV inhibitor project, HTS (AID 2410). The settings on record: human respiratory syncytial virus. It counts as functional.
Test [2] is described as follows: cells.
Test [3] concerns the target Voltage-dependent T-type calcium channel subunit alpha-1H (Homo sapiens, UniProt O95180). It counts as functional.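 Also: channel activity triggered by adding a high calcium stimulation buffer.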
In test [4] the target is T1, Probable nicotinate-nucleotide adenylyltransferase (Staphylococcus aureus (strain N315), UniProt P65502). It counts as functional, Staphylococcus aureus subsp. aureus N315.
The target in test [5] is T1, Probable nicotinate-nucleotide adenylyltransferase. It counts as functional, Staphylococcus aureus subsp. aureus N315. Conditions: read-out: IC50_Mean.
A short description of test [6]: insulin promoter down-regulators in MIN6 cells, imaging, high-content screening, mouse beta cells (AID 1628). The class given is functional.
Test [7] is described as follows: cytotoxicity in MIN6 insulinoma cells, dose response, cytotoxicity control, cell-based, mouse insulinoma (AID 2122).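 Also: confirmatory high-throughput counterscreen run to flag cytotoxic compounds; mouse MIN-6 beta cells carrying an insulin promoter eGFP reporter.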 The class given is functional.
The subject of test [8] is Vero. Put plainly: Vero cell cytotoxicity, cytotoxicity control for flavivirus capping enzyme inhibitors (AID 588742). It counts as functional. Conditions: Chlorocebus sabaeus.
For test [9], the system named is HEK293. Put plainly: cells. The class given is functional, cell-based. The settings on record: Homo sapiens.
In test [10] the target is T2, Nuclear receptor subfamily 0 group B member 1 (Homo sapiens, UniProt P51843).
T2 sequence (P51843 whole entry): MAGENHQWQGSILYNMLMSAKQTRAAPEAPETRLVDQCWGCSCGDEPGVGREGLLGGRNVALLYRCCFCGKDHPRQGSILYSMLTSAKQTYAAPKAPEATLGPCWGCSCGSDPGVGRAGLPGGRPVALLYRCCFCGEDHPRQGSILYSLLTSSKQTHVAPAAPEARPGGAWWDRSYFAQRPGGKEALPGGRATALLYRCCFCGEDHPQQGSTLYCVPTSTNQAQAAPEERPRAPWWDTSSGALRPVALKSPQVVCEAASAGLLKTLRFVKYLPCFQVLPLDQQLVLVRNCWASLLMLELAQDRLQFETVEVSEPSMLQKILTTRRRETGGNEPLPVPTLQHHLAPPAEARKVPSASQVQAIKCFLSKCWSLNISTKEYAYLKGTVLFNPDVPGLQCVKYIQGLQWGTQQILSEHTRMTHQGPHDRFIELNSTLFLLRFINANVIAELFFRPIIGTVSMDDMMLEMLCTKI
Put plainly: Luminescence-based cell-based high throughput dose response assay for inhibitors of the orphan nuclear receptor subfamily 0, group B, member 1 (DAX1; NR0B1). [Related pubchem assays (depositor defined):AID504766, AID504790]. It counts as functional.

A short description of test [11]: cytotoxicity in HEK-293T cells, dose response, cytotoxicity control for TCR NF-kB inhibitor project, luminescence, T-cell screen hits (AID 489026).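 Also: cells exposed to compound about 14 hours before the viability readout.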 It counts as functional, cell-based.
Test [12] deals with Vero. Put plainly: cells. It counts as functional. The settings on record: Chlorocebus sabaeus.
Test [13] deals with Vero. Put plainly: cells. The class given is functional, cell-based. The settings on record: Chlorocebus sabaeus.
Test [14] can be described thus: inhibitors of intracellular T. cruzi replication, confirmation, NIH3T3 host cells, beta-gal luminescence (AID 2044).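 Also: intracellular parasites grown in NIH/3T3 mouse fibroblasts as host cells; luminescent beta-galactosidase reporter signal from transgenic T. cruzi replicating inside host cells; inhibitors lower the luminescence signal.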 The class given is functional, cell-based.
The nature of test [15]: cytotoxicity toward NIH3T3 fibroblasts, dose response, counter-screen, cell-based, ATP luminescence, mouse fibroblasts (AID 2010).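 Also: cells exposed to compound for about 90 hours before reading.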 The class given is functional.
Test [16] can be described thus: inhibitors of SNCA 5'UTR-driven reporter translation, confirmation, H4 neuroglioma cells, luminescence (AID 1988). The class given is functional, cell-based.
In test [17] the target is T3, Ubiquitin-conjugating enzyme E2 N (Homo sapiens, UniProt P61088).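 Also: Dose-response confirmation in a TR-FRET assay detecting UBC13-driven polyubiquitin chain formation, inhibition measured.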
T3 sequence (P61088 whole entry): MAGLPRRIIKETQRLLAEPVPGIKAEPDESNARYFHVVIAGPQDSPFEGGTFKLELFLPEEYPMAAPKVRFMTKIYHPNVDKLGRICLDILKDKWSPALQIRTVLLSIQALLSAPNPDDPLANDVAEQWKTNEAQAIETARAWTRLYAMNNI
It counts as functional.

Test [18] has as its target 72 kDa type IV collagenase (Homo sapiens, UniProt P08253). Put plainly: Dose Response validation of uHTS RPN11 inhibitor hits using a MMP-2 Fluorescence assay. The class given is functional.
In test [19] the target is 26S proteasome non-ATPase regulatory subunit 14 (Homo sapiens, UniProt O00487). Put plainly: inhibition of proteasome subunit RPN11 – biochemical, fluorescence polarization, uHTS hits, confirmation (AID 602368). It counts as functional.
Test [20] has as its target Prothrombin (Bos taurus, UniProt P00735). Put plainly: thrombin inhibition, dose response, biochemical, fluorescence polarization, uHTS hits (AID 602369). The class given is functional.
A short description of test [21]: Luminescence Cell-Based Dose Response HTS to Identify Inhibitors of 5'UTR Stem-Loop Driven Prion Protein mRNA Translation in H4 Neuroglioblastoma Cells. [Related pubchem assays: 1827 (Project Summary), 1813 (Primary HTS)]. The class given is functional.
Test [22] can be described thus: inhibitors of firefly luciferase expression or activity, dose response, H4 neuroglioma cells, luminescence (AID 1990). It counts as functional, cell-based.
Test [23] concerns the target T4, RNA-binding protein pos-1 (Caenorhabditis elegans, UniProt G5EF15).
T4 sequence (G5EF15 whole entry): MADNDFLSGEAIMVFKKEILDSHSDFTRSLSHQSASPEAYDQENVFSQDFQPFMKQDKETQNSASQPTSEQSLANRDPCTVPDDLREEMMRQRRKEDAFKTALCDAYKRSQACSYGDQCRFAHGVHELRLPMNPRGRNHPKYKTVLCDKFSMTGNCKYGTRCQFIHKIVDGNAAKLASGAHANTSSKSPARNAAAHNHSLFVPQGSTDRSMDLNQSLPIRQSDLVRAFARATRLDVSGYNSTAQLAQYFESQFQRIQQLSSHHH
Put plainly: inhibitors of POS-1/mex-3 RNA binding, dose response, biochemical, fluorescence polarization (AID 1964).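 Also: purified POS-1 fused to maltose binding protein made in E. coli; potency of compounds blocking POS-1 binding to fluorescent RNA.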

Test [24] deals with T5, Zinc finger protein mex-5 (Caenorhabditis elegans, UniProt Q9XUB2).
T5 sequence (Q9XUB2 whole entry): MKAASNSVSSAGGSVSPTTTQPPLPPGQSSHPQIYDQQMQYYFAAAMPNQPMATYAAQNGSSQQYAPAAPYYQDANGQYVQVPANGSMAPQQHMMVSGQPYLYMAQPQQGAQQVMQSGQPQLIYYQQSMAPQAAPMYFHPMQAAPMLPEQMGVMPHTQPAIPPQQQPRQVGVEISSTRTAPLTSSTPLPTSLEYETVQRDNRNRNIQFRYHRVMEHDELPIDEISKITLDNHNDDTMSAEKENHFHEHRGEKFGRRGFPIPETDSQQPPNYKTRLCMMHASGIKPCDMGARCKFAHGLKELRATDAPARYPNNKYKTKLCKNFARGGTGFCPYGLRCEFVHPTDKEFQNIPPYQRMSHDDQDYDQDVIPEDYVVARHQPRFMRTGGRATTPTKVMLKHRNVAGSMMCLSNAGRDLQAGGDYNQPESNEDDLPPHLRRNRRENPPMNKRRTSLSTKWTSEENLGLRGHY
Put plainly: MEX-5/TCR-2 RNA interaction inhibitors, dose response, biochemical, C. elegans, fluorescence polarization (AID 1960). On the technique in general: Polarisation of emitted light reports the rotation of a fluorescent probe.

The target of test [25] is G-protein coupled receptor 55 (Homo sapiens, UniProt Q9Y2T6). Put plainly: GPR55 antagonists blocking LPI-driven arrestin recruitment, primary screen, imaging, U2OS, beta-arrestin-GFP, LPI agonist (AID 2013).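 Also: antagonist potency measured as reduced agonist-driven arrestin aggregation.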 It counts as functional. Background: Recruitment of arrestin is a read-out of receptor activation apart from second messengers.
Test [26] in a line: cells. It counts as functional, cell-based.
A short description of test [27]: cells. It counts as functional, cell-based. The source holds these as a separate data set.
Test [28] deals with INS1. Put plainly: beta cell apoptosis inhibitors, cytokine rescue, dose response, luminescence, retest (AID 449756).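 Also: cell death triggered by IL-1 beta plus TNF-alpha plus IFN-gamma mixture; protective hits raise ATP signal compared with cytokine alone wells.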 The settings on record: Rattus norvegicus. The class given is functional, cell-based.
Test [29] concerns the target Protein Wnt-3a (Mus musculus, UniProt P27467). Put plainly: Wnt3a-driven reporter signaling inhibition, dose response, selectivity assay for Gli-SUFU antagonist project, Wnt-LIGHT cells, luminescence (AID 651570).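 Also: Wnt-LIGHT reporter cells stimulated with conditioned medium from Wnt3a-producing cells.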 It counts as functional. Conditions: read-out: IC50_Mean.
The nature of test [30]: Luminescence-based counterscreen assay for KLF5 inhibitors: dose response cell-based high throughput screening assay to identify cytotoxic compounds using the IEC-6 intestinal epithelial cell line. [Related pubchem assays: 1700 (Primary screen.), 1834 (Confirmation screen.), 1858 (Summary AID.), 1905 (Counterscreen.)]. It counts as functional. A general note: A counterscreen serves to expose hits that act by an unwanted route or on another target.

Activity calls are given as the source filed them.

Voltage-dependent T-type calcium channel subunit alpha-1H, sequence (O95180 whole entry): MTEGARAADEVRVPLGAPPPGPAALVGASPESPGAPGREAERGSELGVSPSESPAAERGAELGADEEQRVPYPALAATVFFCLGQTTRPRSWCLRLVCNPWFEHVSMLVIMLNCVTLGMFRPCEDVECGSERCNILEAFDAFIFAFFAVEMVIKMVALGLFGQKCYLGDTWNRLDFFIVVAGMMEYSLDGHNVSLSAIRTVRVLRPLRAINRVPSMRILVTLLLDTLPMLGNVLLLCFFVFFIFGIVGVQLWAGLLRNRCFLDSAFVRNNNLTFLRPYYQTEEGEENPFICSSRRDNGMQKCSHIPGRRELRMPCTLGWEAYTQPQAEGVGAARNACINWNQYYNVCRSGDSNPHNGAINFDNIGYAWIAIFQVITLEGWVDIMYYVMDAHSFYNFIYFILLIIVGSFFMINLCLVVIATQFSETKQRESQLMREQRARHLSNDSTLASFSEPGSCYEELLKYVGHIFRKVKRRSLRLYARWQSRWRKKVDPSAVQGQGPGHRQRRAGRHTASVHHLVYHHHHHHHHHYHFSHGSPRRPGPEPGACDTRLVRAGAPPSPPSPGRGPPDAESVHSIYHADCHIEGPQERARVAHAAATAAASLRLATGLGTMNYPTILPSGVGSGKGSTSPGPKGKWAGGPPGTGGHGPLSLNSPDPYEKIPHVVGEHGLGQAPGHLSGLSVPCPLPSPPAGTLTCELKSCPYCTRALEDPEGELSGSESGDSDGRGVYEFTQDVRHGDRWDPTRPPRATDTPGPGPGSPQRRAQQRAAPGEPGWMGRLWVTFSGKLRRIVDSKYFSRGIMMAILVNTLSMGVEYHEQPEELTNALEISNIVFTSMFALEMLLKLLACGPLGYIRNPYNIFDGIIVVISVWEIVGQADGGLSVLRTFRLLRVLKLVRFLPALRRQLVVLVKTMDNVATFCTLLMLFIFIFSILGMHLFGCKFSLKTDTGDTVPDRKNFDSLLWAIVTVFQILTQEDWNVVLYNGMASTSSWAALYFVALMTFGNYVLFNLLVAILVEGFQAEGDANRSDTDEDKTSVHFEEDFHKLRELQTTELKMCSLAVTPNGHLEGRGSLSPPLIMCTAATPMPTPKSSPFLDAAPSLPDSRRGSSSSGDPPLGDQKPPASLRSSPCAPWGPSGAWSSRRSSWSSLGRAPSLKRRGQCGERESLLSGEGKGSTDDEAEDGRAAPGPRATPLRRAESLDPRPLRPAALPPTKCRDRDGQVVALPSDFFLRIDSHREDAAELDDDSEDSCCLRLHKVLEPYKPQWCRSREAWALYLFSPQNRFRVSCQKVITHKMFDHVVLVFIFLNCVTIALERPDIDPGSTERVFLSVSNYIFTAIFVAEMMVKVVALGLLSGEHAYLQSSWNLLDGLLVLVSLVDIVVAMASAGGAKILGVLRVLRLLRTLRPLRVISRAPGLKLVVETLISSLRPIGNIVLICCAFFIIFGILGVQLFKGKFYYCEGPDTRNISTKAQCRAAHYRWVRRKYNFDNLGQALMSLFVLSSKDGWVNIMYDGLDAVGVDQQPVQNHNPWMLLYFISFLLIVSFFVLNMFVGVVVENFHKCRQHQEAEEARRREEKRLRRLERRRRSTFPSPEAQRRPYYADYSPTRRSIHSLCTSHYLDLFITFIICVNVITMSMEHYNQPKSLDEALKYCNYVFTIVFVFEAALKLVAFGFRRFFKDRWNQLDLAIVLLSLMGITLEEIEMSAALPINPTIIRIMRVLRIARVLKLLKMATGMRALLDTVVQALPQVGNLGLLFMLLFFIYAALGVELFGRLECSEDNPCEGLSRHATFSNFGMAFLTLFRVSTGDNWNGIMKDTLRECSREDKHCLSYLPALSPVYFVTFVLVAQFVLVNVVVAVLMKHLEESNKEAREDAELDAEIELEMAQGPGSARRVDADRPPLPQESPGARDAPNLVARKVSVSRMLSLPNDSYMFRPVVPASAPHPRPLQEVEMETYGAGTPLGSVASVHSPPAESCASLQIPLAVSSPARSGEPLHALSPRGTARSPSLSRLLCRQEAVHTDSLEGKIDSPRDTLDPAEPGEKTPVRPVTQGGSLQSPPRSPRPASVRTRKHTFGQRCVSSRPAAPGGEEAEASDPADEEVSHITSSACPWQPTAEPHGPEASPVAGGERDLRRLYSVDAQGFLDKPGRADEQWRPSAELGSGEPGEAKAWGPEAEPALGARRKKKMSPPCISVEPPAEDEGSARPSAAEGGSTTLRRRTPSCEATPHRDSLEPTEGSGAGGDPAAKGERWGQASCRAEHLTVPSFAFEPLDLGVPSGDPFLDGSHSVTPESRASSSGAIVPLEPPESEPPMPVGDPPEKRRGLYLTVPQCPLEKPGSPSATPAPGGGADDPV
G-protein coupled receptor 55, sequence (Q9Y2T6 whole entry): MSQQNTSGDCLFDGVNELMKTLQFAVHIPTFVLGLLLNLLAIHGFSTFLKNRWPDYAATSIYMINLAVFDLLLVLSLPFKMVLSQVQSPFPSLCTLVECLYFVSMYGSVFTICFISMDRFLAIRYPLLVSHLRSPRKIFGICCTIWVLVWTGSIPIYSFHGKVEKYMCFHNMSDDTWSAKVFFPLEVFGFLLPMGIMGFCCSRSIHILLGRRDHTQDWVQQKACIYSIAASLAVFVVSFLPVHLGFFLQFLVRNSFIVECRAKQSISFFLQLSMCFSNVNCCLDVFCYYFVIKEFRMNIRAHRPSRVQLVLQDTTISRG
T1 sequence (P65502 whole entry): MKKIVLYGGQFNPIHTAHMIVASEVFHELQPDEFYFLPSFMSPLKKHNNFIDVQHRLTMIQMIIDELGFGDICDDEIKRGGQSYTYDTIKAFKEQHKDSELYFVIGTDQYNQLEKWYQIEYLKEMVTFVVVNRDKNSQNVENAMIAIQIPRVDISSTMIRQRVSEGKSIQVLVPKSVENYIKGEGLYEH
Protein Wnt-3a, sequence (P27467 whole entry): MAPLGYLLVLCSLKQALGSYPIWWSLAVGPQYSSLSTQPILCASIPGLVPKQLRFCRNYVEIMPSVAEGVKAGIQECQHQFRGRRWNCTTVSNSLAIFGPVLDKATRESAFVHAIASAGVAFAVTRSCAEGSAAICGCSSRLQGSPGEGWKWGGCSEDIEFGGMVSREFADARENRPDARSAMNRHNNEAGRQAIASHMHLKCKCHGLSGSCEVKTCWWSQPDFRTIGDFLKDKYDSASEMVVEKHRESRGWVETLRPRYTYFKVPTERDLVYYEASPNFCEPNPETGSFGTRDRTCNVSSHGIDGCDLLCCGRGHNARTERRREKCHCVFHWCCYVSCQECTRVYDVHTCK
26S proteasome non-ATPase regulatory subunit 14, sequence (O00487 whole entry): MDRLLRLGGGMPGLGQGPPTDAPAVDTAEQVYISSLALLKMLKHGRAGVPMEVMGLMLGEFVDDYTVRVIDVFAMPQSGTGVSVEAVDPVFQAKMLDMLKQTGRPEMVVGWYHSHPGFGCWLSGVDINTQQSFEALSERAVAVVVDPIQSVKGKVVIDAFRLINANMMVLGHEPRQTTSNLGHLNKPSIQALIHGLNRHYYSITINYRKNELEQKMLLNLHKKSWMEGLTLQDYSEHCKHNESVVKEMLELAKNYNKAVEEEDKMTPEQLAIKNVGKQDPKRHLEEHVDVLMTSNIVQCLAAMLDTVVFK
72 kDa type IV collagenase, sequence (P08253 whole entry): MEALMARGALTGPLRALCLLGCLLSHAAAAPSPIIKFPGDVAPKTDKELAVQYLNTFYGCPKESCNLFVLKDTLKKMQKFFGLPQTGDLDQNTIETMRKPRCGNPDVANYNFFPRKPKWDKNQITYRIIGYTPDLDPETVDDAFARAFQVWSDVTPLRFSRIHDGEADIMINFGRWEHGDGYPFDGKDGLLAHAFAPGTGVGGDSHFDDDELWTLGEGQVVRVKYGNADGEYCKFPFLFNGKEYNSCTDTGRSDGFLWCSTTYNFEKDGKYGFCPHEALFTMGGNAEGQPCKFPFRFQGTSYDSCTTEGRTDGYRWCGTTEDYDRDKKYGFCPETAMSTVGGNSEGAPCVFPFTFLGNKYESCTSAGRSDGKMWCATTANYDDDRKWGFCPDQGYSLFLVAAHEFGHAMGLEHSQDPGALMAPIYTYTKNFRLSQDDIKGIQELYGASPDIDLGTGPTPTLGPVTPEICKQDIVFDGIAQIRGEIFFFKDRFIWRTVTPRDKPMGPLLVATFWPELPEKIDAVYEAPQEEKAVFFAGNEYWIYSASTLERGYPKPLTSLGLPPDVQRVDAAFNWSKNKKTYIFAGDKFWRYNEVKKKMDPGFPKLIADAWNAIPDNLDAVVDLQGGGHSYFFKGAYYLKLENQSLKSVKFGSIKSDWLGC

For the compound `O=C(CNC(=O)c1cccs1)N=Nc1c(O)[nH]c2ccc([N+](=O)[O-])cc12`, the CC50 in test [1] is > 50 µM (active). Moreover, the IC50 in test [2] is 14.6 µM (active).

As for `Cc1ccc(-n2nc3c(c2NC(=O)c2cccs2)CSC3)cc1`, the EC50 in test [3] is 0.558 µM (active). Moreover, the IC50 in test [4] was 6.35 µM (active); in [5], 16.2 µM (active).

On to `COC(=O)c1[nH]c2ccccc2c1NC(=O)CN1CCCCCC1`, for which the IC50 was 3.51 µM (active) in test [6] and 2.63 µM (active) in [7].

Regarding `COc1ccc(CSc2nnc(NC(C)=O)s2)cc1[N+](=O)[O-]`, in [8], the CC50 was > 40 µM (active).

On to `COc1ccccc1N1CCN(S(=O)(=O)c2cc(C(F)(F)F)cc(C(F)(F)F)c2)CC1`, for which the IC50 in [9] and in test [10] was > 67.5 µM (inactive) in each case.

On to `O=C(Nc1nc2ccc(S(=O)(=O)N3CCCC3)cc2s1)C1CCCCC1`, for which the IC50 in test [11] was > 80 µM (inactive).

Turning to `CCOCCCNc1[nH]cnc2c3ccccc3nc1-2`, the IC50 is 2.76 µM (active) in [6] and 2.31 µM (active) in test [7].

For `CC1=Nc2cc(C(=O)N3CCCC3)ccc2Sc2c(C)ccc(C)c21`, the values for the CC50 in [12] and in test [1] were 16.9 µM (active) and 7.28 µM (active), respectively. For the same compound, the values for the IC50 in [2] and in test [13] were 3.34 µM (active) and 8.21 µM (active), respectively.

Turning to `O=C(CN1C(=O)NC2(CCCC2)C1=O)NCC1CCCO1` (stereo not drawn), the IC50 in test [9] and in test [10] was > 67.5 µM (inactive) each time.

Turning to `CN1CCN(S(=O)(=O)c2cccc(C(=O)Nc3sc4c(c3-c3nc5ccccc5[nH]3)CCCC4)c2)CC1`, the CC50 in [8] was > 40 µM (active). Moreover, the EC50 in test [14] is 1.67 µM (active); in test [15], > 60 µM (not active).

On to `COc1ccccc1NC(=O)N1CCc2[nH]c3ccc(F)cc3c2C1`, for which the EC50 in [3] is 5.47 µM (active). Besides, the CC50 in [1] was > 50 µM (active).

Regarding `CN1CCc2c(sc3c2C(=O)NC(c2cn(Cc4ccccc4)c4ccccc24)N3)C1` (stereo not drawn), the EC50 in test [16] was 5.25 µM (active); in test [21], 8.12 µM (active); in test [22], 8.71 µM (active). In [12], the CC50 was 17.1 µM (active). For the same compound, the IC50 in test [17] was > 20 µM (inactive); in [18], > 100 µM (inactive); in [19], 23.4 µM (active); in test [20] it was 16 µM (active).

For the compound `CCn1c(SCc2ccc(C)cc2)nnc1C1CCN(S(=O)(=O)c2ccc(OC)cc2)CC1`, the results for the EC50 in test [23], in test [24] and in [3] were > 300 µM (not active), > 300 µM (not active) and 6.41 µM (active), respectively.

Consider `Brc1ccc2c(c1)C(C1=NCCN1)c1ccccc1CS2` (stereo not drawn), for which the IC50 in test [11] was > 80 µM (inactive).

On to `Cc1nn(Cc2ccccc2Cl)c(C)c1C(=O)Nc1nnc(C2CC2)s1`, for which the CC50 in [12] was > 25 µM (active); in test [1] it was 7.49 µM (active). Further, the figures for the IC50 in test [2] and in test [13] were 3.75 µM (active) and 5.21 µM (active), respectively.

Consider `COc1ccc(OC)c(N2C(=O)NC(=O)/C(=C/c3c(C)[nH]c4ccccc34)C2=O)c1`, for which the IC50 in [25] is < 0.5 µM (active).

In the case of `COc1ccc(N2C(=O)NC(=O)/C(=C\c3cn(CC(=O)N4CCOCC4)c4ccccc34)C2=O)c(OC)c1`, the EC50 in test [23] and in test [24] was > 300 µM (not active) each time. Besides, the IC50 in [25] is 1.59 µM (active).

With `O=C(CSc1nnc(Cc2cc(O)nc(O)n2)n1-c1ccc(F)cc1)N1CCCCC1`, the IC50 in test [9] and in [10] was > 67.6 µM (inactive) throughout.

With `CC1CCN(Cc2c(C(=O)N/N=C/c3ccccc3O)nnn2-c2nonc2N)CC1`, the EC50 in test [26] was > 350 µM (not active); in test [27], 29.5 µM (active). Moreover, in test [28], the AC50 is 0.9 µM (active). For the same compound, the IC50 was 20.8 µM (inactive) in test [29] and 4.81 µM (active) in [30].

`Cc1[nH]n(C2=NCCS2)c(=O)c1N=Nc1cccc(C(F)(F)F)c1`: the IC50 in [6] is 1.75 µM (active); in test [7], 2.2 µM (active). In addition, the EC50 was 0.669 µM (active) in test [14] and > 60 µM (not active) in test [15]. In addition, in test [28], the AC50 is 2.5 µM (active).

On to `Cn1c(-c2ccccc2)c(/C=N/NC(=O)c2ccc(O)cc2)c2ccccc21`, for which the IC50 in [9] and in test [10] was > 67.5 µM (inactive) each time.
